Measurements taken from ChEMBL document CHEMBL3885861, “Open TG-GATES”.

Organism: Rattus norvegicus
Experiment: Open TG-GATES - Regimen: Daily Repeat
Format: toxicity, organism-based, Sprague-Dawley
Set-up: regimen Daily Repeat, gender Male, age 6 weeks
Conditions: in vivo, po, 0 mg/kg, route gavage, dose level Control; for Bas / Eos / Hb / Ht / Lym / MCH / MCHC / MCV / Mono / Neu / Plat / RBC / Ret / WBC: tissue Blood; for KIDNEY_L / KIDNEY_R / KIDNEY_TOTAL: tissue Kidney; for LIVER: tissue Liver; for A/G / ALP / ALT / AST / BUN / CRE / Ca / Cl / DBIL / GLC / IP / K / LDH / Na / PL / RALB / TBIL / TC / TG / TP / gamma-GTP: tissue Plasma

Structure (SMILES): CC(N)=O [ACETAMIDE]
- TERMINAL_BW (72 h, time 3 day): 236.7 g
- Bas (72 h, time 3 day): 0%
- Eos (72 h, time 3 day): 1%
- Hb (72 h, time 3 day): 13.1 g/dL
- Ht (72 h, time 3 day): 40.5%
- Lym (72 h, time 3 day): 71.4%
- MCH (72 h, time 3 day): 20 pg
- MCHC (72 h, time 3 day): 32.4%
- MCV (72 h, time 3 day): 61.6 fL
- Mono (72 h, time 3 day): 3.6%
- Neu (72 h, time 3 day): 23%
- Plat (72 h, time 3 day): 126.3 x10_4/uL
- RBC (72 h, time 3 day): 658.2 x10_4/ul
- Ret (72 h, time 3 day): 7.1%
- WBC (72 h, time 3 day): 126.7 x10_2/uL
- KIDNEY_L (72 h, time 3 day): 1 g
- KIDNEY_R (72 h, time 3 day): 1 g
- KIDNEY_TOTAL (72 h, time 3 day): 2 g
- LIVER (72 h, time 3 day): 11.1 g
- A/G (72 h, time 3 day): 1
- ALP (72 h, time 3 day): 1741.8 IU/L
- ALT (72 h, time 3 day): 39.8 IU/L
- AST (72 h, time 3 day): 71.6 IU/L
- BUN (72 h, time 3 day): 15.2 mg/dL
- CRE (72 h, time 3 day): 0.1 mg/dL
- Ca (72 h, time 3 day): 10.7 mg/dL
- Cl (72 h, time 3 day): 105.6 meq/L
- DBIL (72 h, time 3 day): 0.004 mg/dL
- GLC (72 h, time 3 day): 196 mg/dL
- IP (72 h, time 3 day): 6.7 mg/dL
- K (72 h, time 3 day): 4.4 meq/L
- LDH (72 h, time 3 day): 180.4 IU/L
- Na (72 h, time 3 day): 140.9 meq/L
- PL (72 h, time 3 day): 162.6 mg/dL
- RALB (72 h, time 3 day): 2.8 g/dL
- TBIL (72 h, time 3 day): 0.002 mg/dL
- TC (72 h, time 3 day): 85.2 mg/dL
- TG (72 h, time 3 day): 108.8 mg/dL
- TP (72 h, time 3 day): 5.6 g/dL
- gamma-GTP (72 h, time 3 day): 0.8 IU/L
- TERMINAL_BW ([…], time 7 day): 276.9 g
- TERMINAL_BW ([…], time 14 day): 335.4 g
- TERMINAL_BW ([…], time 28 day): 415.6 g
- Bas ([…], time 7 day): 0%
- Eos ([…], time 7 day): 1%
- Hb ([…], time 7 day): 12.7 g/dL
- Ht ([…], time 7 day): 38.9%
- Lym ([…], time 7 day): 75.2%
- MCH ([…], time 7 day): 19.9 pg
- MCHC ([…], time 7 day): 32.7%
- MCV ([…], time 7 day): 60.8 fL
- Mono ([…], time 7 day): 3.2%
- Neu ([…], time 7 day): 19.8%
- Plat ([…], time 7 day): 131.8 x10_4/uL
- RBC ([…], time 7 day): 640.2 x10_4/ul
- Ret ([…], time 7 day): 6.7%
- WBC ([…], time 7 day): 130.3 x10_2/uL
- Bas ([…], time 14 day): 0%
- Eos ([…], time 14 day): 1%
- Hb ([…], time 14 day): 13.4 g/dL
- Ht ([…], time 14 day): 40.3%
- Lym ([…], time 14 day): 79.8%
- MCH ([…], time 14 day): 19.6 pg
- MCHC ([…], time 14 day): 33.2%
- MCV ([…], time 14 day): 58.9 fL
- Mono ([…], time 14 day): 3%
- Neu ([…], time 14 day): 15.2%
- Plat ([…], time 14 day): 119.7 x10_4/uL
- RBC ([…], time 14 day): 685.6 x10_4/ul
- Ret ([…], time 14 day): 5.2%
- WBC ([…], time 14 day): 124.3 x10_2/uL
- Bas ([…], time 28 day): 0%
- Eos ([…], time 28 day): 1%
- Hb ([…], time 28 day): 13.5 g/dL
- Ht ([…], time 28 day): 41.1%
- Lym ([…], time 28 day): 82.2%
- MCH ([…], time 28 day): 18.5 pg
- MCHC ([…], time 28 day): 32.8%
- MCV ([…], time 28 day): 56.3 fL
- Mono ([…], time 28 day): 2.2%
- Neu ([…], time 28 day): 14.2%
- Plat ([…], time 28 day): 99.3 x10_4/uL
- RBC ([…], time 28 day): 729.2 x10_4/ul
- Ret ([…], time 28 day): 4.1%
- WBC ([…], time 28 day): 118.1 x10_2/uL
- KIDNEY_L ([…], time 7 day): 1.1 g
- KIDNEY_R ([…], time 7 day): 1.2 g
- KIDNEY_TOTAL ([…], time 7 day): 2.3 g
- KIDNEY_L ([…], time 14 day): 1.3 g
- KIDNEY_R ([…], time 14 day): 1.3 g
- KIDNEY_TOTAL ([…], time 14 day): 2.6 g
- KIDNEY_L ([…], time 28 day): 1.4 g
- KIDNEY_R ([…], time 28 day): 1.4 g
- KIDNEY_TOTAL ([…], time 28 day): 2.8 g
- LIVER ([…], time 7 day): 12.8 g
- LIVER ([…], time 14 day): 14.7 g
- LIVER ([…], time 28 day): 16 g
- A/G ([…], time 7 day): 0.9
- ALP ([…], time 7 day): 1570 IU/L
- ALT ([…], time 7 day): 38.2 IU/L
- AST ([…], time 7 day): 64.2 IU/L
- BUN ([…], time 7 day): 16.1 mg/dL
- CRE ([…], time 7 day): 0.2 mg/dL
- Ca ([…], time 7 day): 10.5 mg/dL
- Cl ([…], time 7 day): 103.4 meq/L
- DBIL ([…], time 7 day): 0 mg/dL
- GLC ([…], time 7 day): 195.2 mg/dL
- IP ([…], time 7 day): 6.6 mg/dL
- K ([…], time 7 day): 4.7 meq/L
- LDH ([…], time 7 day): 164.6 IU/L
- Na ([…], time 7 day): 140.6 meq/L
- PL ([…], time 7 day): 148.6 mg/dL
- RALB ([…], time 7 day): 2.8 g/dL
- TBIL ([…], time 7 day): 0 mg/dL
- TC ([…], time 7 day): 72.6 mg/dL
- TG ([…], time 7 day): 135.5 mg/dL
- TP ([…], time 7 day): 5.7 g/dL
- gamma-GTP ([…], time 7 day): 0.7 IU/L
- A/G ([…], time 14 day): 0.9
- ALP ([…], time 14 day): 1394.4 IU/L
- ALT ([…], time 14 day): 33.2 IU/L
- AST ([…], time 14 day): 64.6 IU/L
- BUN ([…], time 14 day): 17.9 mg/dL
- CRE ([…], time 14 day): 0.2 mg/dL
- Ca ([…], time 14 day): 10.4 mg/dL
- Cl ([…], time 14 day): 103.5 meq/L
- DBIL ([…], time 14 day): 0 mg/dL
- GLC ([…], time 14 day): 196.6 mg/dL
- IP ([…], time 14 day): 6.6 mg/dL
- K ([…], time 14 day): 4.2 meq/L
- LDH ([…], time 14 day): 170.6 IU/L
- Na ([…], time 14 day): 141.6 meq/L
- PL ([…], time 14 day): 156 mg/dL
- RALB ([…], time 14 day): 2.7 g/dL
- TBIL ([…], time 14 day): 0 mg/dL
- TC ([…], time 14 day): 72 mg/dL
- TG ([…], time 14 day): 191.9 mg/dL
- TP ([…], time 14 day): 5.8 g/dL
- gamma-GTP ([…], time 14 day): 0.8 IU/L
- A/G ([…], time 28 day): 0.8
- ALP ([…], time 28 day): 983.4 IU/L
- ALT ([…], time 28 day): 34.2 IU/L
- AST ([…], time 28 day): 64.6 IU/L
- BUN ([…], time 28 day): 16.3 mg/dL
- CRE ([…], time 28 day): 0.2 mg/dL
- Ca ([…], time 28 day): 10.3 mg/dL
- Cl ([…], time 28 day): 103.9 meq/L
- DBIL ([…], time 28 day): 0.004 mg/dL
- GLC ([…], time 28 day): 204.8 mg/dL
- IP ([…], time 28 day): 6.3 mg/dL
- K ([…], time 28 day): 4.1 meq/L
- LDH ([…], time 28 day): 179.6 IU/L
- Na ([…], time 28 day): 142.3 meq/L
- PL ([…], time 28 day): 133.2 mg/dL
- RALB ([…], time 28 day): 2.7 g/dL
- TBIL ([…], time 28 day): 0.002 mg/dL
- TC ([…], time 28 day): 60.2 mg/dL
- TG ([…], time 28 day): 133.7 mg/dL
- TP ([…], time 28 day): 6 g/dL
- gamma-GTP ([…], time 28 day): 0.9 IU/L
